Test [1] deals with HDMEC cells. The test can be described thus: Inhibition of proliferation of HDMEC cells. It counts as cell-based. As to conditions: Homo sapiens.
The target of the next test is Tubulin (Sus scrofa, UniProt P02550+P02554). Kind of test: Inhibition of tubulin polymerization (turbidimetry). It counts as biochemical, pig. As to conditions: tubulin 10 μM, 37° C., turbidity at 350 nm. The procedure: Tubulin is purified from pig brains according to the published methods (Shelanski et al., 1973, Proc. Natl, Acad. Sci. USA, 70, 765-768. Weingarten et al., 1975, Proc. Natl, Acad. Sci. USA, 72, 1858-1862). Briefly, the brains are ground and centrifuged in an extraction buffer. The tubulin, contained in the extract supernatant, is subjected to two successive cycles of polymerization at 37° C. and depolymerization at 4° C., before being separated from the MAPs (Microtubule Associated Proteins) by chromatography on a phosphocellulose P11 column (Whatman). The tubulin thus isolated is more than 95% pure. It is stored in a buffer known as RB/2 30% glycerol, the composition of which is MES-NaOH [2-(N-morpholino)ethanesulfonic acid] 50 mM, pH 6.8; MgCl2 0.25 mM; EGTA 0.5 mM; 30% glycerol (v/v), GTP (guanosine 5′-triphosphate) 0.2 mM. The polymerization of the tubulin into microtubules is monitored by turbidimetry as follows; the tubulin is adjusted to a concentration of 10 μM (1 mg/ml) in the RB/2 30% glycerol buffer, to which is added 1 mM GTP and 6 mM MgCl2. The polymerization is initiated by increasing the temperature from 6° C. to 37° C. in a cuvette with a 1 cm optical pathlength, placed in a Uvikon 931 spectrophotometer (Kontron) equipped with a thermostatically-regulated cuvette holder. The increase in the turbidity of the solution is monitored at 350 nm. The products are dissolved at 10 mM in DMSO and added at variable concentrations (0.5 to 10 μM) to the tubulin solution before polymerization. The IC50 value is defined as the concentration of product which inhibits 50% of the rate of polymerization. A product whose IC50 value is less than or equal to 3 μM is considered as very active.
Sequence of Tubulin (P02554 whole entry): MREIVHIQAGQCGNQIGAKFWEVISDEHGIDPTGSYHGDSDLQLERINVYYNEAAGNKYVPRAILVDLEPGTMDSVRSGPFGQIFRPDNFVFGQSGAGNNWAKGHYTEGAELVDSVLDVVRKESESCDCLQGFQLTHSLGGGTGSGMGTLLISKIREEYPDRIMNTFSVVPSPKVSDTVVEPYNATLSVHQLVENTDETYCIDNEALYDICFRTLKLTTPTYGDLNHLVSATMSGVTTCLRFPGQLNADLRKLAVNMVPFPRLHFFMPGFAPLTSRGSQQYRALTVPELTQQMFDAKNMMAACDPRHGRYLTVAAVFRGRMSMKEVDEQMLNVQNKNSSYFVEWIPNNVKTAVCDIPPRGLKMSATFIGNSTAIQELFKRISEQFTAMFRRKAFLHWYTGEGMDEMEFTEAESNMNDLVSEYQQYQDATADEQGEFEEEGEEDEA
Sequence of Tubulin (P02550 whole entry): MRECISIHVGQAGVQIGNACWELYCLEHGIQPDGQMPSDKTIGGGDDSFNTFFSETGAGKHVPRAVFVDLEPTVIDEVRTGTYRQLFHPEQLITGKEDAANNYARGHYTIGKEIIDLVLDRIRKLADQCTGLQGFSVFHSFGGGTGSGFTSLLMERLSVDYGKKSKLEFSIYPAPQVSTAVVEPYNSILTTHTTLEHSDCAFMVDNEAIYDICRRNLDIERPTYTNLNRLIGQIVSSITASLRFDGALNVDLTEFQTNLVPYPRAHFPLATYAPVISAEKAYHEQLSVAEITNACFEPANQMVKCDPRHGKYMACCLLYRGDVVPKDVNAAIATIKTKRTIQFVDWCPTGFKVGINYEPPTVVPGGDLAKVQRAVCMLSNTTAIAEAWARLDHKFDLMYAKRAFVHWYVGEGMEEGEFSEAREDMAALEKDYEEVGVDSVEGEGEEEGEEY

Another test has as its system HeLa cells. The test can be described thus: Inhibition of proliferation of HeLa cells ([14C]-thymidine incorporation). The format is cell-based, human. The procedure: The proliferation of HeLa cells is assessed by measuring the incorporation of [^14C]-thymidine in the following way. The HeLa cells (epithelial tumor cells of human origin) are cultured in a DMEM medium (Gibco) which contains 10% fetal calf serum and antibiotics (1% penicillin, 1% streptomycin). To carry out the proliferation test, the cells are inoculated into 96-well cytostar microplates (Amersham), at a rate of 5 000 cells per well. [^14C]-thymidine (0.1 μCi/well) and the products to be assessed are then added. Variable concentrations of product up to 10 μM are used; the DMSO (solvent used to dissolve the products) should not exceed 0.5% in the medium. After incubation for 48 hours at 37° C., the radioactivity incorporated into the cells is measured by counting the plate in a TRI-LUX counter (Wallac). The IC50 value is defined as the concentration of product which reduces the radioactivity by 50% relative to an untreated control. A product whose IC50 value is less than 1 μM is considered as cytotoxic.
Background: Incorporation of labelled thymidine or its analogues reports DNA synthesis.

The subject of test [2] is HDMEC cells. The test can be described thus: Detachment effect on HDMEC endothelial cells. The format is cell-based, human. As to conditions: treatment for two hours. The text has this:
A test to determine the detachment of endothelial cells was established in order to select the products on the basis of their “in vitro” activity. This test for determining the endothelial cell detachment is characterized in that the endothelial cells, inoculated in plates which are coated at the bottom with a binder, e.g., chosen from gelatin, fibronectin or vitronectin, after culturing, are supplemented with a medium containing the test compound, and the cells are then labeled with a fluorescent substance, the cells which become detached are removed by washing and the fluorescence of the remaining cells is counted in a fluorimeter.
This test consists in measuring the detachment of endothelial cells cultured on substrates based on a binder, e.g., chosen from fibronectin, vitronectin and gelatin. […] The fluorescence of the remaining cells is counted in a fluorimeter. […]
The assessment of the detachment of the endothelial cells in vitro is determined in the following way. […] The fluorescence of the cells which remain attached to the substratum of the well is counted using a fluorimeter, Spectrafluor Plus (Tecan, excitation at 485 nm, and emission at 535 nm). The data are the average of six different samples and are expressed as a percentage of the control (untreated cells). […]
The assessment of the detachment of the endothelial cells in vitro is determined in the following way. […]

Turning to `COc1cc(C(=O)C2CC2c2ccc(N(C)C)cc2)cc(OC)c1OC` (racemic) [Example 2, [2-(4-Dimethylaminophenyl)cyclopropyl](3,4,5-trimethoxyphenyl)methanone, trans racemate], the concentration for half-maximal inhibition (IC50) was determined as 4000 nM in the test on HDMEC cells [1]; 2500 nM at Tubulin; 1450 nM in the test with HeLa cells (48 hours); 1350 nM in the test on HeLa cells (Homo sapiens, HeLa, 48 h).

Regarding `COc1ccc(C2CC2C(=O)c2cc(OC)c(OC)c(OC)c2)cc1O` (racemic) [Example 1, [2-(3-Hydroxy-4-methoxyphenyl)cyclopropyl](3,4,5-trimethoxyphenyl)methanone, trans racemate], the half-inhibitory concentration (IC50) in the test with HDMEC cells [1] is 17 to 18 nM; at Tubulin, 1000 nM; in the test on HeLa cells (Homo sapiens, HeLa, 48 h), below 1.9 nM. Moreover, the “Percentage of detachment of HDMEC cells induced with the compound cited in the example at a concentration of 1 μM” value with HDMEC cells [2] is recorded as 36-37%.

On to `COc1ccc(C2C3C=CC(C3)C2C(=O)c2cc(OC)c(OC)c(OC)c2)cc1O` (racemic) [Example 3, [2-(3-Hydroxy-4-methoxyphenyl)bicyclo[2.2.1]hept-4-enyl](3,4,5-trimethoxyphenyl)methanone, trans racemate], for which the IC50 is 4500 nM on Tubulin and 520 to 1060 nM in the test on HeLa cells (Homo sapiens, HeLa, 48 hours).

One may read the IC50 as the concentration at which inhibition is half-maximal.

The values above are taken from patent publication US6887904B2, “Substituted arylcycloalkanes, compositions containing them and use thereof” (Aventis Pharma S. A., priority 2001, dated 2005).
